Assay results reported in patent US7820714B2, “Siglec inhibitors” (priority 2001, dated 2010).
Like-named read-outs stand apart in the source and are kept apart here.

Assays:
Siglec-4a (MAG) = target: T1, Siglec-4a (MAG) (UniProt P20917); assay: Hapten inhibition assay, Siglec-4a (MAG); settings: for Siglec-4a (MAG) rIP: quotient IC50 reference compound / IC50 compound; for IC50: read-out: Siglec-4a (MAG) IC50; for Siglec-4a (MAG) percentage in parentheses below the IC50 bound: at the concentration of the IC50 bound, meaning not defined in the patent
T1 sequence (P20917 1-627): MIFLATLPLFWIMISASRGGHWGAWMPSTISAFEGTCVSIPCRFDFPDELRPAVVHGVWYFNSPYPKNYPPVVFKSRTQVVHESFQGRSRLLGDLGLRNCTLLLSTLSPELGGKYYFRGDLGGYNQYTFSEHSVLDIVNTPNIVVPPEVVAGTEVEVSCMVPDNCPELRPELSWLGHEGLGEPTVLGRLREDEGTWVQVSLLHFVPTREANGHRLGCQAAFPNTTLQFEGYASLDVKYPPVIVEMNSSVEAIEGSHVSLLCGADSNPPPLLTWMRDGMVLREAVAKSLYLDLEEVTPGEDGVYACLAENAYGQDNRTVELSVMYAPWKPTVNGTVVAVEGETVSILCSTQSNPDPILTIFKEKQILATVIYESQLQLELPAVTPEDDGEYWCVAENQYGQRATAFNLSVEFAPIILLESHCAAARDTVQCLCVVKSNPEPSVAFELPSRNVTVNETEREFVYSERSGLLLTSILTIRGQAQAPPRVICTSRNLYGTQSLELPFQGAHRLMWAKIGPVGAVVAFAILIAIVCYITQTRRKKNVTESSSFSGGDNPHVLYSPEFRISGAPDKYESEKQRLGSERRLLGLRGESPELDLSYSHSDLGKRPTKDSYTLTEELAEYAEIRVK
Method: Preferably, the inhibition can be determined by a Hapten inhibition test. […] After overnight incubation at 4° C. the unbound complexes are removed by washing the cells and the bound radioactivity is determined. […] Then followed the addition of 10 μl of a suspension of target cells, preferably 0.25 to 0.5% of human erythrocytes and incubation overnight at 4° C. The unbound radioactivity is removed by washing the cells five times with 200 μl of washing buffer, preferably phosphate-buffered saline with 0.1% (W/V) bovine serum albumin, and the cell-bound activity is determined with a γ-counter. […] The inhibition is determined in that the value without inhibitor is set to 0% and that with the sialidase-treated cells is set equal to 100%.

Siglec-1 (sialoadhesin) = Siglec-1 (sialoadhesin) (Mus musculus, UniProt Q62230); assay: Hapten inhibition assay, Siglec-1 (sialoadhesin); format: binding; settings: for Siglec-1 (sialoadhesin) rIP: quotient IC50 reference compound / IC50 compound; for Siglec-1 (sialoadhesin) percentage in parentheses below the IC50 bound: at the concentration of the IC50 bound, meaning not defined in the patent
Siglec-1 (sialoadhesin), sequence (Q62230 20-136 limits assumed): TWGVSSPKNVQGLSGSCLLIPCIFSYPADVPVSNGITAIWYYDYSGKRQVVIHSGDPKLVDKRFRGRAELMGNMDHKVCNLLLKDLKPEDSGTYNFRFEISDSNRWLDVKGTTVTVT
Method: Preferably, the inhibition can be determined by a Hapten inhibition test. […] After overnight incubation at 4° C. the unbound complexes are removed by washing the cells and the bound radioactivity is determined. From the data obtained in this way, the concentrations are found which lead to 50% inhibition of the binding (IC50 values) (5, 6). Specially preferred during the Hapten inhibition test was 10 μl of the complex solution with an activity of 10^3 Bq ^125I mixed with the same volume of a solution of the substance to be investigated (concentrated three times) and incubated at 4° C. for one hour. Then followed the addition of 10 μl of a suspension of target cells, preferably 0.25 to 0.5% of human erythrocytes and incubation overnight at 4° C. The unbound radioactivity is removed by washing the cells five times with 200 μl of washing buffer, preferably phosphate-buffered saline with 0.1% (W/V) bovine serum albumin, and the cell-bound activity is determined with a γ-counter. […] The inhibition is determined in that the value without inhibitor is set to 0% and that with the sialidase-treated cells is set equal to 100%.
The IC50 value is the siglec inhibitor concentration which leads to 50% inhibition in the binding in the Hapten inhibition assay.

| Molecule | Siglec-4a (MAG) rIP (Siglec-4a (MAG)) | IC50 (Siglec-4a (MAG); unit inferred) | Siglec-1 (sialoadhesin) rIP (Siglec-1 (sialoadhesin)) | IC50 (Siglec-1 (sialoadhesin); unit inferred) | Siglec-4a (MAG) percentage in parentheses below the IC50 bound (Siglec-4a (MAG)) | IC50 (Siglec-4a (MAG); bounds given in mM) | Siglec-1 (sialoadhesin) percentage in parentheses below the IC50 bound (Siglec-1 (sialoadhesin)) | IC50 (Siglec-1 (sialoadhesin); bounds given in mM) |
| --- | --- | --- | --- | --- | --- | --- | --- | --- |
| CC(=O)N[C@H]1[C@H]([C@H](O)[C@H](O)CO)O[C@@](O[C@H]2[C@@H](O)[C@@H](CO)O[C@@H](O[C@H]3[C@H](O)[C@@H](O)C(O)O[C@@H]3CO)[C@@H]2O)(C(=O)O)C[C@@H]1O (some centres unmarked) [2,3-sialyllactose, reference compound] | 7.3 | 1.6 mM | 2.4 | 0.385 mM | – | – | – | – |
| O=C(NC1C(O)CC(OCc2ccccc2)(C(=O)O)OC1C(O)C(O)CO)c1ccccc1 (stereo not drawn) [Benzyl-α-5-N-benzoyl-neuraminic acid] | >0.27 | – | <0.05 | – | (27%) | < 10 mM | (63%) | > 10 mM |
| CCCC(=O)N[C@H]1[C@H]([C@H](O)[C@H](O)CO)O[C@@](OCc2ccccc2)(C(=O)O)C[C@@H]1O [Benzyl-α-5-N-butanoyl-neuraminic acid] | 1.5 | 5.3 mM | 2.7 | 0.25 mM | – | – | – | – |
| CCC(=O)NC1C(O)CC(OCc2ccccc2)(C(=O)O)OC1C(O)C(O)CO (stereo not drawn) [Benzyl-α-5-N-propanoyl-neuraminic acid] | 4.8 | 2.5 mM | 3.4 | 0.215 mM | – | – | – | – |
| CC(=O)N[C@H]1[C@H]([C@H](O)[C@H](O)CO)O[C@@](SCc2ccccc2)(C(=O)O)C[C@@H]1O [Benzylthio-α-Neu5Ac] | 3.0 | 2 mM | 4.1 | 0.28 mM | – | – | – | – |
| CO[C@]1(C(=O)O)C[C@H](O)[C@@H](NC(C)=O)[C@H]([C@H](O)[C@H](O)CNC(=O)C(CNC(C)=O)NC(C)=O)O1 (stereo partly drawn) [Methyl-α-9-N-(2,3-diacetylaminopropanoyl)-amino-9-desoxy-Neu5Ac] | 2.3 | 2.5 mM | <<0.1 | – | – | – | (80%) | > 10 mM |
| CCOc1c(NC[C@@H](O)[C@@H](O)[C@@H]2O[C@@](OC)(C(=O)O)C[C@H](O)[C@H]2NC(C)=O)c(=O)c1=O [Methyl-α-9-N-(ethoxycyclobutendion)-amino-9-desoxy-Neu5Ac] | 32 | 0.24 mM | 0.2 | 1.33 mM | – | – | – | – |
| COC1(C(=O)O)CC(O)C(NC(C)=O)C(C(O)C(O)CNC(=O)CNC(=O)CN)O1 (stereo not drawn) [Methyl-α-9-N-(gly)2-amino-9-desoxy-Neu5Ac] | 0.9 | 5 mM | <<0.1 | – | – | – | (100%) | > 10 mM |
| COC1(C(=O)O)CC(O)C(NC(C)=O)C(C(O)C(O)CNC(=O)CNC(=O)CNC(=O)CN)O1 (stereo not drawn) [Methyl-α-9-N-(gly)3-amino-9-desoxy-Neu5Ac] | <<0.27 | – | >>0.05 | – | (88%) | > 10 mM | (11%) | < 10 mM |
| COC1(C(=O)O)CC(O)C(NC(C)=O)C(C(O)C(O)CNC(=O)Cc2ccccc2)O1 (stereo not drawn) [Methyl-α-9-N-(phenylacetyl)-amino-9-desoxy-Neu5Ac] | 7 | 0.367 mM | – | – | – | – | – | – |
| COC1(C(=O)O)CC(O)C(NC(C)=O)C(C(O)C(O)CNC(=O)CC(C)=O)O1 (stereo not drawn) [Methyl-α-9-N-acetoacetyl-amino-9-desoxy-Neu5Ac] | 6.2 | 1.01 mM | <0.05 | – | – | – | (62%) | > 10 mM |
| CO[C@]1(C(=O)O)C[C@H](O)[C@@H](NC(C)=O)[C@H]([C@H](O)[C@H](O)CNC(=O)CN)O1 [Methyl-α-9-N-aminoacetyl-9-desoxy-Neu5Ac] | 3.3 | 3.4 mM | 0.3 | 7.48 mM | – | – | – | – |
| COC1(C(=O)O)CC(O)C(NC(C)=O)C(C(O)C(O)CNS(=O)(=O)c2cccc3c(N(C)C)cccc23)O1 (stereo not drawn) [Methyl-α-9-N-dansyl-amino-9-desoxy-Neu5Ac] | 19 | 0.317 mM | 2.6 | 0.26 mM | – | – | – | – |
| CCCCCC(=O)NCC(O)C(O)C1OC(OC)(C(=O)O)CC(O)C1NC(C)=O (stereo not drawn) [Methyl-α-9-N-hexanoyl-amino-9-desoxy-Neu5Ac] | 54 | 0.198 mM | 0.7 | 1.46 mM | – | – | – | – |
| COC1(C(=O)O)CC(O)C(NC(C)=O)C(C(O)C(O)CNC(=O)C(N)=O)O1 (stereo not drawn) [Methyl-α-9-N-oxamido-amino-9-desoxy-Neu5Ac] | – | – | <0.2 | > 4 mM | – | – | (57%) | – |
| CO[C@]1(C(=O)O)C[C@H](O)[C@@H](NC(C)=O)[C@H]([C@H](O)[C@H](O)CNC(C)=S)O1 [Methyl-α-9-N-thioacetyl-amino-9-desoxy-Neu5Ac] | 6.5 | 0.733 mM | 0.3 | 6 mM | – | – | – | – |
| COC1(C(=O)O)CC(O)C(NC(C)=O)C(C(O)C(O)CNC(=O)C(F)(F)F)O1 (stereo not drawn) [Methyl-α-9-N-trifluoracetyl-amino-9-desoxy-Neu5Ac] | 10 | 0.55 mM | 0.5 | 4 mM | – | – | – | – |
| COC1(C(=O)O)CC(O)C(NC(C)=O)C(C(O)C(O)C(=O)O)O1 (stereo not drawn) [Methyl-α-9-carboxy-Neu5Ac] | <<2.4 | > 1 mM | <0.2 | > 4 mM | (87%) | – | (63%) | – |
| CO[C@]1(C(=O)O)C[C@H](O)[C@@H](NC(C)=O)[C@H]([C@H](O)[C@H](O)CS(C)(=O)=O)O1 [Methyl-α-9-methylsulphonyl-9-desoxy-Neu5Ac] | 0.1 | 3.4 mM | <<0.05 | 2 mM | – | – | – | – |
| CO[C@]1(C(=O)O)C[C@H](O)[C@@H](NC(C)=O)[C@H]([C@H](O)[C@H](O)C[S+](C)[O-])O1 (stereo partly drawn) [Methyl-α-9-methylsulphoxido-9-desoxy-Neu5Ac] | 8.5 | 0.697 mM | <0.05 | 2 mM | – | – | – | – |
| COC1(C(=O)O)CC(O)C(NC(C)=O)C(C(O)C(O)CSC)O1 (stereo not drawn) [Methyl-α-9-methylthio-9-desoxy-Neu5Ac] | <<0.27 | – | <<0.05 | – | (116%) | > 10 mM | – | – |
| COC(=O)C1(OC)CC(O)C(NC(=O)CF)C(C(O)C(O)CO)O1 (stereo not drawn) [Methyl-α-methyl-α-5-N-fluoracetyl-neuraminic acid] | 17.1 | 0.28 mM | 1.9 | 0.625 mM | – | – | – | – |
| Methyl-α-methyl-α-5-N-fluoracetylaminoacetyl-neuraminic acid | – | – | 0.4 | 2.5 mM | (90%) | > 10 mM | – | – |
